Source: US8962596B2 (Array BioPharma Inc., priority 2010, dated 2015)

How the values were obtained:
Type in all cases: biochemical
[1] = target: T1, JAK3 (Homo sapiens, UniProt P52333); assay: JAK3 Inhibition Assay (Omnia kinase fluorescence peptide substrate assay); conditions: averaged IC50 ranges; assay of Example D; 10 μM (Km app) or 1 mM ATP, 2.5 nM JAK3
T1 construct: purchased Invitrogen Corporation, Carlsbad, Calif; PV4080
T1 sequence (P52333 1-1124): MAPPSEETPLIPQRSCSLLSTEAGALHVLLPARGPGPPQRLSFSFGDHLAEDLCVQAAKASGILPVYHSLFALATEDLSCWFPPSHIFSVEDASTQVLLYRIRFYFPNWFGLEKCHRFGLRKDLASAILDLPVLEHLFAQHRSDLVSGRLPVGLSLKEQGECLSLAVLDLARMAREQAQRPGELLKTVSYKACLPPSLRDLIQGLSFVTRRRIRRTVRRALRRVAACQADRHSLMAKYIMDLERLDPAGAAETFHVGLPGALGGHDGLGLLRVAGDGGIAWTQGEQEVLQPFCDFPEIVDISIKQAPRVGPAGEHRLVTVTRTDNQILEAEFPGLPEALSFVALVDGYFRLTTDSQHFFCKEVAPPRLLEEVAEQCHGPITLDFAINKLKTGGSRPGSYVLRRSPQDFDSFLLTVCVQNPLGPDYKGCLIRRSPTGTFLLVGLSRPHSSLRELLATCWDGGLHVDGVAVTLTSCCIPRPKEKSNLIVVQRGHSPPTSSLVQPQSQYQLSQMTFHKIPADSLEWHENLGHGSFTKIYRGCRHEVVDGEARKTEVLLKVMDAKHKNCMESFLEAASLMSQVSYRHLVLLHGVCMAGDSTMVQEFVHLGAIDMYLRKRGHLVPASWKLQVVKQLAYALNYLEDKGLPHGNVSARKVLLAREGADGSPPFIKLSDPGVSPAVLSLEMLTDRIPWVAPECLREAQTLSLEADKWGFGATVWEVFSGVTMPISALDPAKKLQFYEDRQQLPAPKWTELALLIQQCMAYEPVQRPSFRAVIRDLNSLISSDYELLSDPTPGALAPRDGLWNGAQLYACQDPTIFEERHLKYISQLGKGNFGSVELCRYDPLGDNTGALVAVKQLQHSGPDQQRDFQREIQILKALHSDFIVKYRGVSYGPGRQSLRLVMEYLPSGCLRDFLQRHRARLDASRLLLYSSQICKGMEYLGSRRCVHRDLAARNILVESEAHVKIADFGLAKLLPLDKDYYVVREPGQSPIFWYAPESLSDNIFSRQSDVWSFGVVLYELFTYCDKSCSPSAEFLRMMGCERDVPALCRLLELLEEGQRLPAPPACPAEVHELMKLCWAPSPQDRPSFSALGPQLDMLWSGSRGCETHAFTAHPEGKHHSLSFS
From the text: (§1) The assays described in Examples A, B, C and D for the determination of Tyk2, JAK1, JAK2 and JAK3 kinase activity, respectively, utilized the Omnia® Kinase fluorescence peptide substrate-based technology (Invitrogen). The specific components of the assay mixture are described in Examples A, B, C and D. In these assays, Mg^2+ is chelated upon phosphorylation of the Omnia peptide by the kinase to form a bridge between the chelation-enhanced fluorophore Sox and the phosphate, resulting in an increase in fluorescence emission at 485 nm when excited at […]. The reactions were therefore read at excitation 360 nm and emission was measured at 485 nm every 50 seconds for 45 minutes using a PerkinElmer EnVision Multilabel Plate Reader.
(§2) The final buffer conditions for Tyk2, JAK1, JAK2, and JAK3 assays were as follows: 25 mM HEPES, pH 7.4, 10 mM MgCl2, 0.01% Triton X-100 and 1 mM DTT.
(§3) Compounds were prepared at 50× the final concentration in DMSO by conducting 3-fold serial dilutions from a 500-μM intermediate dilution to give a 10-point dosing curve having a high dose of 10 μM. Two-μL aliquots of these were transferred to a fresh plate for a ten-fold intermediate dilution with assay buffer. Five-μL aliquots of the diluted compounds were then transferred to 20-μL of assay mixtures described in Examples A, B, C and D for a final concentration of DMSO of 2%. A standard or reference compound was typically included on each assay plate to validate that plate. For each plate, percent of control (POC) values were calculated for each well according to the following equation:
(§4) where Xmax=Average Uninhibited Controls • Xmin=Average Background IC50's were estimated from the POC's using a standard 4-parameter logistic model:
(§5) where • A=Minimum Y (Bottom Asymptote) • B=Maximum Y (Top Asymptote) • C=EC50 • D=Slope Factor • X=Compound Concentration (nM) • Y=POC
(§6) The IC50 is defined as the concentration of inhibitor at which the POC equals 50 for the fitted curve.
(§7) Compounds of Formula I were screened for their ability to inhibit JAK3 using the general enzyme inhibition assay method, in which the assay mixture contained 10 μM (Km app) or 1 mM ATP, 10 μM Omnia® Y7 peptide (Catalog #IVGN KNZ3071C, Invitrogen Corporation, Carlsbad, Calif.) and 2.5 nM JAK3 in a total volume of 20 μL. JAK3 was purchased from Invitrogen Corporation, Carlsbad, Calif. (catalog #IVGN PV4080).

[2] = target: T2, JAK1 (Homo sapiens, UniProt P23458); assay: JAK1 Inhibition Assay (Omnia kinase fluorescence peptide substrate assay); conditions: averaged IC50 ranges; assay of Example B; 40 μM (Km app) or 1 mM ATP, 15 nM JAK1
T2 construct: purchased Invitrogen Corporation, Carlsbad, Calif; PV4775
From the text: as §1, §2, §3, §4, §5, §6
Compounds of Formula I were screened for their ability to inhibit JAK1 using the general enzyme inhibition assay method, in which the assay mixture contained 40 μM (Km app) or 1 mM ATP, 8 μM Omnia® Y12 peptide (Catalog #IVGN KPZ3121C; Invitrogen Corporation, Carlsbad, Calif.) and 15 nM JAK1 in a total volume of 20 μL. JAK1 was purchased from Invitrogen Corporation, Carlsbad, Calif. (catalog #IVGN PV4775).

[3] = target: T3, JAK2 (Homo sapiens, UniProt O60674); assay: JAK2 Inhibition Assay (Omnia kinase fluorescence peptide substrate assay); conditions: averaged IC50 ranges; assay of Example C; 25 μM (Km app) or 1 mM ATP, 5 nM JAK2
T3 construct: purchased Invitrogen Corporation, Carlsbad, Calif; PV4288
From the text: as §1, §2, §3, §4, §5, §6
as §7, with “inhibit JAK2” for “inhibit JAK3”, “contained 25” for “contained 10”, “and 5” for “and 2.5”, “nM JAK2” for “nM JAK3”, “μL. JAK2” for “μL. JAK3”, “#IVGN PV4288).” for “#IVGN PV4080).”

[4] = target: T4, Human Tyk2 kinase domain (Homo sapiens, UniProt P29597); assay: Tyk2 Inhibition Assay (Omnia kinase fluorescence peptide substrate assay); conditions: averaged IC50 ranges; assay of Example A; 10 μM (Km app) or 1 mM ATP, 2 nM Tyk2
T4 construct: comprising amino acids 886 to 1187 with 10 additional histidine residues; 10xHis (histidine tag) (C, cleaved yes); made in house
T4 sequence (P29597 886-1187): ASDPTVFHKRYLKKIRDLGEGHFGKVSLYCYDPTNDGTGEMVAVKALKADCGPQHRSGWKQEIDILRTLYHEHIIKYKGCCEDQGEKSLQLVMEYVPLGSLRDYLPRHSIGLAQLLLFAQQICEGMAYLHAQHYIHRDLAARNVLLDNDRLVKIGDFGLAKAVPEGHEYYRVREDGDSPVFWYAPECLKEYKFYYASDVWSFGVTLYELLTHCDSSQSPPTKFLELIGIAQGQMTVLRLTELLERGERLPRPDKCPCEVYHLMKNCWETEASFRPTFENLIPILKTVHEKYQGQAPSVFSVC
From the text: as §1, §2, §3, §4, §5, §6
Compounds of Formula I were screened for their ability to inhibit Tyk2 using the general enzyme inhibition assay method, in which the assay mixture contained 10 μM (Km app) or 1 mM ATP, 8 μM Omnia® Y12 peptide (Catalog #IVGN KPZ3121C; Invitrogen Corporation, Carlsbad, Calif.) and 2 nM Tyk2 in a total volume of 20 μL. Human Tyk2 kinase domain, comprising amino acids 886 to 1187 with 10 additional histidine residues (histidine tag) on the carboxy terminus, was expressed and purified from bacculovirus in-house at Array BioPharma Inc. (Boulder, Colo.). The histidine tag was cleaved after purification using standard conditions.

T2 sequence (P23458 whole entry): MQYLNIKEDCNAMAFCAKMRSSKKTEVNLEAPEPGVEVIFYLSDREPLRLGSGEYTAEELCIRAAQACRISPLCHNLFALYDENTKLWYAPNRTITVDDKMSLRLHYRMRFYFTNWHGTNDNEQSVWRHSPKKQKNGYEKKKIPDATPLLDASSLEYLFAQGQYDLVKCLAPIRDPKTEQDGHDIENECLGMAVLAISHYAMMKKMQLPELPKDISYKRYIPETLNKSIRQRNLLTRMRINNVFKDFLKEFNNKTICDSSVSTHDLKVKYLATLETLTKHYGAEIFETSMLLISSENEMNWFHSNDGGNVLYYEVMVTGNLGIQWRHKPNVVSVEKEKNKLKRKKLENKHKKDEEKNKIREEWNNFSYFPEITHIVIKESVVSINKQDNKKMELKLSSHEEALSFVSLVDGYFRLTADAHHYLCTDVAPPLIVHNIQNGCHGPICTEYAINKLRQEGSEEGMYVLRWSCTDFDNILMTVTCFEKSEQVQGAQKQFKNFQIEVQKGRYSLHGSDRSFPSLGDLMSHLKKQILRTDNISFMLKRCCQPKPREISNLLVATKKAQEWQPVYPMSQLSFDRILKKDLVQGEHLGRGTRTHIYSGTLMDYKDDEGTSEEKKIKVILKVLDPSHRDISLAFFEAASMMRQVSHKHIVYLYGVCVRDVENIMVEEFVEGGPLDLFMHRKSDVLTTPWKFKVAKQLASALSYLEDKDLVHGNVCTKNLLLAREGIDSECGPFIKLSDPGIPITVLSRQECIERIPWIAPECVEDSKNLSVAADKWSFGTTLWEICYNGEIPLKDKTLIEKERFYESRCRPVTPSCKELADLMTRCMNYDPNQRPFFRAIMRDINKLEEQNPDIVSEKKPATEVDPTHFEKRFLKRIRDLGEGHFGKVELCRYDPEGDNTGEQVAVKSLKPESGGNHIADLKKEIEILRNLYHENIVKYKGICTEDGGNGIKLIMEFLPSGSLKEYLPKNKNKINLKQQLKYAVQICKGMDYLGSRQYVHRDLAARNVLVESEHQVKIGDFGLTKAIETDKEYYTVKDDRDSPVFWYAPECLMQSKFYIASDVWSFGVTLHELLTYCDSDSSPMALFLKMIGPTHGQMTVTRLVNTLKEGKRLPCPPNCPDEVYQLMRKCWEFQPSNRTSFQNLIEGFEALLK
T3 sequence (O60674 whole entry): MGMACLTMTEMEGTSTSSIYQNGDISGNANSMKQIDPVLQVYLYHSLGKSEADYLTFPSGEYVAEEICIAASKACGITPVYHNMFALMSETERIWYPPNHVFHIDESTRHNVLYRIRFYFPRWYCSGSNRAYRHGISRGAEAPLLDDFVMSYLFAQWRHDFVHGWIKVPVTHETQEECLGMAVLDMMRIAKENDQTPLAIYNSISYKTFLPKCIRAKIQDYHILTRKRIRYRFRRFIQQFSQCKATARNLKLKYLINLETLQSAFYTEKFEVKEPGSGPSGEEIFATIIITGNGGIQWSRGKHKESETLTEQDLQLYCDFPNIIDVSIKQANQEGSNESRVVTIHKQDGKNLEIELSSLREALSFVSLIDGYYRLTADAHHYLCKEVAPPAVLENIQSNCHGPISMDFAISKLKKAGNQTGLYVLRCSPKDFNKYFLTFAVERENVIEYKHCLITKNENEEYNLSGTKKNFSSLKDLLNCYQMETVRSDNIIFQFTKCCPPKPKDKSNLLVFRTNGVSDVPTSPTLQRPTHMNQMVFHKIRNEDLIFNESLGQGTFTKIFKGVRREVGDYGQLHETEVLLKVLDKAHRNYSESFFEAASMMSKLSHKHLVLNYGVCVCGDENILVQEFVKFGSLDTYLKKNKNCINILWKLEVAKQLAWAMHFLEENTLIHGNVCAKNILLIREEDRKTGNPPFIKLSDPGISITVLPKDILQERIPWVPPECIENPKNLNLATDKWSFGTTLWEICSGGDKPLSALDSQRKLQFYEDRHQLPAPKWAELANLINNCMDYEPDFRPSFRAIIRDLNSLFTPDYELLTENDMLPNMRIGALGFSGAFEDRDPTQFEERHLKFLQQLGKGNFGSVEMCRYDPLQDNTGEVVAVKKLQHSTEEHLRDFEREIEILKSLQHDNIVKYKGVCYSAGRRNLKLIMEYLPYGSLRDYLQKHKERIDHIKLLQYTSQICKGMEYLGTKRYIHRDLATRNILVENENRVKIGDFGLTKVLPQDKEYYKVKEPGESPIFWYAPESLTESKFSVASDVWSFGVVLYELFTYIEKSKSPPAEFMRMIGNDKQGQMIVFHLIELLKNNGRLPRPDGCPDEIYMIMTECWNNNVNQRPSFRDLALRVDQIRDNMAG

SMILES	IC50 [1] [nM]	IC50 [2] [nM]	IC50 [3] [nM]	IC50 [4] [nM]
Cn1cc(-c2cc3nccn3c(-c3cnn(C4(CC#N)CN(c5ncccn5)C4)c3)n2)cn1 [Example 68, 2-(3-(4-(7-(1-Methyl-1H-pyrazol-4-yl)imidazo[1,2-c]pyrimidin-5-yl)-1H-pyrazol-1-yl)-1-(pyrimidin-2-yl)azetidin-3-yl)acetonitrile]	> 1000	> 1000	> 1000	100 to 1000
Cc1ccc(-c2cc3nccn3c(-c3cnn(C(CC#N)C4CC4)c3)n2)cn1 (stereo not shown) [Example 49, 3-Cyclopropyl-3-(4-(7-(6-methylpyridin-3-yl)imidazo[1,2-c]pyrimidin-5-yl)-1H-pyrazol-1-yl)propanenitrile]	> 1000	100 to 1000	100 to 1000	10 to 100
Cn1cc(-c2cc3nccn3c(-c3cnn(C4(CC#N)CN(CCF)C4)c3)n2)cn1 [Example 77, 2-(1-(2-fluoroethyl)-3-(4-(7-(1-methyl-1H-pyrazol-4-yl)imidazo[1,2-c]pyrimidin-5-yl)-1H-pyrazol-1-yl)azetidin-3-yl)acetonitrile]	> 1000	100 to 1000	10 to 100	< 10
CC(C)(C)NC(=O)c1cc2nccn2c(-c2cnn(C(CC#N)C3CC3)c2)n1 (stereo not shown) [Example 122, N-tert-butyl-5-(1-(2-cyano-1-cyclopropylethyl)-1H-pyrazol-4-yl)imidazo[1,2-c]pyrimidine-7-carboxamide]	> 1000	> 1000	> 1000	100 to 1000
Cn1cc(-c2cc3nccn3c(-c3cnn(C4(CC#N)CN(CC5CCOCC5)C4)c3)n2)cn1 [Example 89, 2-(3-(4-(7-(1-methyl-1H-pyrazol-4-yl)imidazo[1,2-c]pyrimidin-5-yl)-1H-pyrazol-1-yl)-1-((tetrahydro-2H-pyran-4-yl)methyl)azetidin-3-yl)acetonitrile]	> 1000	> 1000	> 1000	100 to 1000
Cn1cc(-c2cc3nccn3c(-c3cnn(C4(CC#N)CN(C(CF)CF)C4)c3)n2)cn1 [Example 79, 2-(1-(1,3-difluoropropan-2-yl)-3-(4-(7-(1-methyl-1H-pyrazol-4-yl)imidazo[1,2-c]pyrimidin-5-yl)-1H-pyrazol-1-yl)azetidin-3-yl)acetonitrile]	> 1000	> 1000	100 to 1000	10 to 100

Further lines, results first:

IC50 [1] [nM]	IC50 [2] [nM]	IC50 [3] [nM]	IC50 [4] [nM]	SMILES
> 1000	10 to 100	10 to 100	< 10	COc1ccc(-c2cc3nccn3c(-c3cnn(C4(CC#N)CN(S(=O)(=O)C5CC5)C4)c3)n2)cc1 [Example 159, 2-(1-(cyclopropylsulfonyl)-3-(4-(7-(4-methoxyphenyl)imidazo[1,2-c]pyrimidin-5-yl)-1H-pyrazol-1-yl)azetidin-3-yl)acetonitrile]
100 to 1000	100 to 1000	10 to 100	< 10	CN1CCN(c2ccc(-c3cc4nccn4c(-c4cnn(C(CC#N)C5CC5)c4)n3)cn2)CC1 (stereo not shown) [Example 51, 3-cyclopropyl-3-(4-(7-(6-(4-methylpiperazin-1-yl)pyridin-3-yl)imidazo[1,2-c]pyrimidin-5-yl)-1H-pyrazol-1-yl)propanenitrile]
100 to 1000	10 to 100	10 to 100	< 10	CN1CCN(c2ccc(-c3cc4nccn4c(-c4cnn(C5(CC#N)CN(CC(F)(F)F)C5)c4)n3)cc2)CC1 [Example 137, 2-(3-(4-(7-(4-(4-methylpiperazin-1-yl)phenyl)imidazo[1,2-c]pyrimidin-5-yl)-1H-pyrazol-1-yl)-1-(2,2,2-trifluoroethyl)azetidin-3-yl)acetonitrile]
100 to 1000	100 to 1000	100 to 1000	10 to 100	CN1CCC(c2ccc(-c3cc4nccn4c(-c4cnn(C(CC#N)C5CCCC5)c4)n3)cc2)CC1 (single isomer, unassigned) [Example 111, 3-cyclopentyl-3-(4-(7-(4-(1-methylpiperidin-4-yl)phenyl)imidazo[1,2-c]pyrimidin-5-yl)-1H-pyrazol-1-yl)propanenitrile]
